The results in this text go back to PubChem BioAssay (NCI).

Test systems include SNB-75 CNS; A498 renal; NCI/ADR-RES ovarian; M14 melanoma; SF-539 CNS; OVCAR-8 ovarian; RPMI-8226 leukemia; SF-295 CNS; HCT-15 colon; SK-MEL-28 melanoma.
Common to all, as to experiment: NCI-60 cell line screen, 48 h

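Where inhibition never reached the appropriate level, the endpoint shown equals the highest concentration tested. Otherwise, values were interpolated linearly from a five-concentration, 48-hour dose response in 96-well plates. At the TGI there is no net growth.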

Take `C[C@]1(O)O[C@@H]2OCC[C@@H]2C2=C1C(=O)c1ccccc1C2=O`: the TGI was determined as 74 µM with SNB-75 CNS; 27.1 µM with A498 renal; 45.8 µM in the assay with NCI/ADR-RES ovarian; 24.1 µM in the assay with M14 melanoma; 31.7 µM in the assay on SF-539 CNS; 29.4 µM with OVCAR-8 ovarian. Also, the TGI turned out to be 20.9 µM in the assay on RPMI-8226 leukemia, 35.8 µM in the assay with SF-295 CNS, 39.1 µM in the assay on HCT-15 colon and 82.5 µM with SK-MEL-28 melanoma.

As to `O=C(N/N=C\c1ccccc1)Nc1cccc2ccccc12`, the TGI in the assay with SNB-75 CNS is above 100 µM; in the assay on A498 renal, 88.9 µM; with NCI/ADR-RES ovarian, above 100 µM; with M14 melanoma, 49.1 µM; with SF-539 CNS, above 100 µM; in the assay on OVCAR-8 ovarian, above 100 µM. Further, the TGI is above 100 µM in the assay with RPMI-8226 leukemia, 77.1 µM in the assay with SF-295 CNS, above 100 µM in the assay on HCT-15 colon and 51.5 µM in the assay with SK-MEL-28 melanoma.

In the case of `c1ccc(C(CCN2CC3CCC(CC3)C2)c2ccccc2)cc1`, the TGI with SNB-75 CNS is 85.9 µM; in the assay with A498 renal, 34.1 µM; in the assay with NCI/ADR-RES ovarian, 58.3 µM; in the assay on M14 melanoma, 27.3 µM; with SF-539 CNS, 29.5 µM; in the assay with OVCAR-8 ovarian it was 98.3 µM. Besides, the TGI is 36.7 µM in the assay with RPMI-8226 leukemia, 55 µM in the assay with SF-295 CNS, 45.4 µM with HCT-15 colon and above 100 µM in the assay with SK-MEL-28 melanoma.

With `Cc1nc2ccccc2n1Cc1nnc(N)o1`, the TGI in the assay on SNB-75 CNS, in the assay on A498 renal, in the assay with NCI/ADR-RES ovarian, in the assay with M14 melanoma, in the assay with SF-539 CNS and in the assay with OVCAR-8 ovarian was above 100 µM throughout. The TGI with RPMI-8226 leukemia, in the assay with SF-295 CNS, with HCT-15 colon and with SK-MEL-28 melanoma was above 100 µM throughout.

`CC(=O)N1c2ccccc2C(C)C1c1[nH]c2ccccc2c1C` (stereo not given): the TGI with SNB-75 CNS is 50.1 µM; in the assay with A498 renal, 53.8 µM; in the assay with NCI/ADR-RES ovarian, above 100 µM; in the assay with M14 melanoma, 42.5 µM; in the assay on SF-539 CNS, 27.2 µM; in the assay on OVCAR-8 ovarian, 57.3 µM. Also, the TGI in the assay with RPMI-8226 leukemia was 73 µM; in the assay with SF-295 CNS, 32 µM; with HCT-15 colon it was above 100 µM; in the assay with SK-MEL-28 melanoma, 49.3 µM.

For `COc1ccc2cc(C(=O)NCCCNC(=O)c3ccc4cc(OC)ccc4c3)ccc2c1`, the TGI in the assay with SNB-75 CNS was 50.5 µM; in the assay with A498 renal it was above 100 µM; in the assay on NCI/ADR-RES ovarian, above 100 µM; with M14 melanoma it was above 100 µM; in the assay with SF-539 CNS it was 7.99 µM; in the assay on OVCAR-8 ovarian it was above 66.3 µM. Also, the TGI was above 100 µM in the assay with RPMI-8226 leukemia, above 83.8 µM in the assay with SF-295 CNS, above 100 µM with HCT-15 colon and above 100 µM in the assay on SK-MEL-28 melanoma.

Regarding `N=c1c2c(=S)n(-c3ccccc3)c(=S)n(-c3ccccc3)c2nc(SCCN2CCOCC2)n1-c1ccccc1`, the TGI in the assay on SNB-75 CNS amounted to 4.54 µM; in the assay on A498 renal, 8.96 µM; with NCI/ADR-RES ovarian, 14.6 µM; with M14 melanoma, 3.8 µM; in the assay on SF-539 CNS, 8.83 µM; in the assay with OVCAR-8 ovarian it was 4.51 µM. Also, the TGI amounted to 3.97 µM in the assay with RPMI-8226 leukemia, 19.2 µM in the assay on SF-295 CNS, 4.09 µM with HCT-15 colon and 4.39 µM with SK-MEL-28 melanoma.

Consider `NC(=O)CC(N=C1C(=O)OC(C(O)CO)C1=NC(CC(N)=O)C(=O)O)C(=O)O` (stereo not given), for which the TGI in the assay on SNB-75 CNS, in the assay with A498 renal, with NCI/ADR-RES ovarian, in the assay on M14 melanoma, with SF-539 CNS and in the assay on OVCAR-8 ovarian was above 100 µM throughout. For the same compound, the TGI in the assay on RPMI-8226 leukemia, in the assay on SF-295 CNS, with HCT-15 colon and with SK-MEL-28 melanoma was above 100 µM throughout.

For `CC1(C)CCC(=O)NC1CC(=O)CC1NC(=O)CCC1(C)C` (stereo not given), the TGI with SNB-75 CNS, in the assay with A498 renal, in the assay with NCI/ADR-RES ovarian, with M14 melanoma, in the assay on SF-539 CNS and in the assay with OVCAR-8 ovarian was above 100 µM each time. The TGI in the assay on RPMI-8226 leukemia, with SF-295 CNS, in the assay on HCT-15 colon and in the assay on SK-MEL-28 melanoma was above 100 µM in each case.

In the case of `Clc1ncc(Cl)c(Cl)n1`, the TGI came to 9.98 µM with SNB-75 CNS; 40.2 µM in the assay on A498 renal; 20.5 µM in the assay with NCI/ADR-RES ovarian; 10.6 µM with M14 melanoma; 24.6 µM with SF-539 CNS; 19.3 µM with OVCAR-8 ovarian. For the same compound, the TGI in the assay on RPMI-8226 leukemia stood at 6.47 µM; with SF-295 CNS, 26.6 µM; with HCT-15 colon, 5.99 µM; with SK-MEL-28 melanoma, 10.9 µM.
